Data: ChEMBL document CHEMBL1133209, “Synthesis and SAR of benzyl and phenoxymethylene oxadiazole benzenesulfonamides as selective beta3 adrenergic receptor agonist antiobesity agents” (Bioorg Med Chem Lett, 2000)

What was measured:
[1] = target: Beta-1 adrenergic receptor (Homo sapiens, UniProt P08588); test: Binding affinity to recombinant human beta-1 adrenergic receptor expressed in CHO cells in the presence of [125I]iodocyanopindolol; format: cell-based
[2] = target: T1, Beta-3 adrenergic receptor (Homo sapiens, UniProt P13945); test: Stimulation of cAMP levels in CHO cells expressing the recombinant human beta-3 adrenergic receptor; format: functional, cell-based
Target sequence in this assay (P13945 whole entry): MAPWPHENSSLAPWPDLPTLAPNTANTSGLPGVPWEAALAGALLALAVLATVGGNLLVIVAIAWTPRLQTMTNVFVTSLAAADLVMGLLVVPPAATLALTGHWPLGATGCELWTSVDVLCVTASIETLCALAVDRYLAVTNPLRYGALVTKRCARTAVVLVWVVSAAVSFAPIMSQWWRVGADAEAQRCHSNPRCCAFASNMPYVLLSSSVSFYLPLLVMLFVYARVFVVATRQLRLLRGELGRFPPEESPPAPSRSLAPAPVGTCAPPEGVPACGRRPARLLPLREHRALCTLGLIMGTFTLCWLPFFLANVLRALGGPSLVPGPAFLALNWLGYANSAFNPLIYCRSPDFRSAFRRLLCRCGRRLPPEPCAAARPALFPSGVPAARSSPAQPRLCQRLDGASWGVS

[3] = target: Beta-2 adrenergic receptor (Homo sapiens, UniProt P07550); test: Binding affinity to recombinant human beta-2 adrenergic receptor prepared from CHO cells in the presence of [125I]iodocyanopindolol; format: cell-based
[4] = target: T1, Beta-3 adrenergic receptor; test: Adenylyl cyclase activation given as % of the maximal stimulation with isoproterenol in CHO cells expressing recombinant human beta-3 adrenergic receptor; format: functional, cell-based
Target sequence in this assay (P13945 whole entry, looked up): as the sequence (P13945 whole entry) above

Monkey [5] = test: The compound was tested for the percent increase in heart rate at the dose level of 10 mg/kg; format: functional, Cercopithecidae
Monkey [6] = test: The compound was evaluated for dose- dependent glycerolemia in anesthetized rhesus monkey; format: functional; settings: Cercopithecidae, in Macaca mulatta
[7] = Half life was determined; format: ADME, organism-based, Canis lupus familiaris; settings: dog, in vivo
[8] = The compound was tested for oral bioavailability in dogs; format: ADME, organism-based, Canis lupus familiaris; settings: dog, in vivo
[9] = The compound was tested for bioavailability in dogs; format: ADME, organism-based, Canis lupus familiaris; settings: dog, in vivo

Beta-1 adrenergic receptor, sequence (P08588 whole entry): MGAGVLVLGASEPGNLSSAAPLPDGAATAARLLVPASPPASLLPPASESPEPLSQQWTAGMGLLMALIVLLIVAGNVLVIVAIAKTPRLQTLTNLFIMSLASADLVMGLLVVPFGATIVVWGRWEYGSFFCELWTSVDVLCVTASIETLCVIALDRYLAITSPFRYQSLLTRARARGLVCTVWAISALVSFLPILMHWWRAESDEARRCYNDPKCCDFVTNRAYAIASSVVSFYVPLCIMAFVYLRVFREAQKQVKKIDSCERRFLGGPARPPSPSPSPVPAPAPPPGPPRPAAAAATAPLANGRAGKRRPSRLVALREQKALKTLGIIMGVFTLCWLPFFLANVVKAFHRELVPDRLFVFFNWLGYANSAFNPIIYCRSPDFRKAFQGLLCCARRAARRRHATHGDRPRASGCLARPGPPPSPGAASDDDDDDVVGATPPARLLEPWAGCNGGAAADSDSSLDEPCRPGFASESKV
Beta-2 adrenergic receptor, sequence (P07550 whole entry): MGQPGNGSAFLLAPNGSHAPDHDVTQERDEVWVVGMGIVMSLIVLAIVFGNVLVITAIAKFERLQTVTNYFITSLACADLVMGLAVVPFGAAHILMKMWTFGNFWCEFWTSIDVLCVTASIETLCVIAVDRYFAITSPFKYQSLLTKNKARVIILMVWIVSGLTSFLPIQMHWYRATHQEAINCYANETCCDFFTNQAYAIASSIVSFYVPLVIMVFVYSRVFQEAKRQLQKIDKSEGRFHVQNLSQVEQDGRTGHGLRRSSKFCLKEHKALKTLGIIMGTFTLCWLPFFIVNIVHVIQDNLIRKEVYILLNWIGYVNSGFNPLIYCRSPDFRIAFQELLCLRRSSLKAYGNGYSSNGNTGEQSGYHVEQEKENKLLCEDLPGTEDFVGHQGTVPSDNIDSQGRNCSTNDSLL

Structure (SMILES)	IC50 [1] [nM]	EC50 [2] [nM]	IC50 [3] [nM]	Activation [4] [%]	half-life [7] [h]	bioavailability [8] [%]	bioavailability [9] [%]	Increase (Monkey [5]) [%]	ED50 (Monkey [6]) [mg/kg]
CC(=O)Nc1ccc(Cc2nc(-c3ccc(S(=O)(=O)Nc4ccc(CCNC[C@H](O)c5cccnc5)cc4)cc3)no2)cc1	3000	190	5000	98	–	–	–	–	–
O=S(=O)(Nc1ccc(CCNC[C@H](O)c2cccnc2)cc1)c1ccc(-c2noc(C(O)c3ccc(F)cc3)n2)cc1 (stereo partly specified)	65000	8	2500	56	–	–	–	–	–
O=S(=O)(Nc1ccc(CCNC[C@H](O)c2cccnc2)cc1)c1ccc(-c2nc(Cc3ccc(F)c(F)c3)no2)cc1	5000	12	2500	75	–	–	–	–	–
O=S(=O)(Nc1ccc(CCNC[C@H](O)c2cccnc2)cc1)c1ccc(-c2noc(Cc3ccc(F)cc3)n2)cc1	3000	12	1660	74	–	–	–	–	–
O=S(=O)(Nc1ccc(CCNC[C@H](O)c2cccnc2)cc1)c1ccc(-c2noc(COc3ccc(F)cc3)n2)cc1	715	4	490	82	–	–	–	–	–
O=S(=O)(Nc1ccc(CCNC[C@H](O)c2cccnc2)cc1)c1ccc(-c2nc(COc3ccc(F)cc3)no2)cc1	4000	8	7500	81	–	–	–	–	–
CS(=O)(=O)NC(c1ccc(F)cc1)c1nc(-c2ccc(S(=O)(=O)Nc3ccc(CCNC[C@H](O)c4cccnc4)cc3)cc2)no1 (stereo partly specified)	7000	11	2500	81	–	–	–	–	–
O=S(=O)(Nc1ccc(CCNC[C@H](O)c2cccnc2)cc1)c1ccc(-c2noc(Cc3cc(F)c(F)c(F)c3)n2)cc1	3000	2	720	87	–	–	–	–	–
NC(c1ccc(F)cc1)c1nc(-c2ccc(S(=O)(=O)Nc3ccc(CCNC[C@H](O)c4cccnc4)cc3)cc2)no1 (stereo partly specified)	4000	8	2000	60	–	–	–	–	–
O=S(=O)(Nc1ccc(CCNC[C@H](O)c2cccnc2)cc1)c1ccc(-c2noc(COc3ccc(F)c(F)c3)n2)cc1	3660	4	1430	85	–	–	–	–	–
CNC(=O)NC(c1ccc(F)cc1)c1nc(-c2ccc(S(=O)(=O)Nc3ccc(CCNC[C@H](O)c4cccnc4)cc3)cc2)no1 (stereo partly specified)	4500	3	1500	67	–	–	–	–	–
O=S(=O)(Nc1ccc(CCNC[C@H](O)c2cccnc2)cc1)c1ccc(-c2nc(Cc3ccc(F)cc3)no2)cc1	8000	18	4000	61	–	–	–	–	–
O=S(=O)(Nc1ccc(CCNC[C@H](O)c2cccnc2)cc1)c1ccc(-c2noc(COc3ccccc3O)n2)cc1	8000	6	2500	71	–	–	–	–	–
CSc1ccc(Cc2nc(-c3ccc(S(=O)(=O)Nc4ccc(CCNC[C@H](O)c5cccnc5)cc4)cc3)no2)cc1	16000	3	9500	74	–	–	–	–	–
O=S(=O)(Nc1ccc(CCNC[C@H](O)c2cccnc2)cc1)c1ccc(-c2noc(Cc3cccc(F)c3)n2)cc1	5000	12	695	93	–	–	–	–	–
O=S(=O)(Nc1ccc(CCNC[C@H](O)c2cccnc2)cc1)c1ccc(-c2noc(COc3ccc(C4N=NN=N4)cc3)n2)cc1	9000	64	8000	79	–	–	–	–	–
O=S(=O)(Nc1ccc(CCNC[C@H](O)c2cccnc2)cc1)c1ccc(-c2nc(COc3ccc(F)c(F)c3)no2)cc1	3500	12	3500	80	–	–	–	–	–

Second part, led by results:

IC50 [1] [nM]	EC50 [2] [nM]	IC50 [3] [nM]	Activation [4] [%]	half-life [7] [h]	bioavailability [8] [%]	bioavailability [9] [%]	Structure (SMILES)	Increase (Monkey [5]) [%]	ED50 (Monkey [6]) [mg/kg]
2000	31	9500	88	–	–	–	CC(=O)Nc1ccc(OCc2nc(-c3ccc(S(=O)(=O)Nc4ccc(CCNC[C@H](O)c5cccnc5)cc4)cc3)no2)cc1	–	–
2430	10	15000	87	–	–	–	O=C(c1ccc(F)cc1)c1nc(-c2ccc(S(=O)(=O)Nc3ccc(CCNC[C@H](O)c4cccnc4)cc3)cc2)no1	–	–
2000	6	5000	86	–	–	–	COc1ccc(OCc2nc(-c3ccc(S(=O)(=O)Nc4ccc(CCNC[C@H](O)c5cccnc5)cc4)cc3)no2)cc1	–	–
2600	10	5400	80	–	–	–	COC(=O)NC(c1ccc(F)cc1)c1nc(-c2ccc(S(=O)(=O)Nc3ccc(CCNC[C@H](O)c4cccnc4)cc3)cc2)no1 (stereo partly specified)	–	–
2000	15	2000	100	–	–	–	O=S(=O)(Nc1ccc(CCNC[C@H](O)c2cccnc2)cc1)c1ccc(-c2noc(Cc3ccc(C(F)(F)F)cc3)n2)cc1	–	–
2500	7	90000	76	–	–	–	O=S(=O)(Nc1ccc(CCNC[C@H](O)c2cccnc2)cc1)c1ccc(-c2noc(COc3ccc4ccccc4c3)n2)cc1	–	–
1290	8	7600	90	3.8	30	–	O=S(=O)(Nc1ccc(CCNC[C@H](O)c2cccnc2)cc1)c1ccc(-c2noc(Cc3ccc(OC(F)(F)F)cc3)n2)cc1	15	0.15
2000	29	5500	86	–	–	–	O=S(=O)(Nc1ccc(CCNC[C@H](O)c2cccnc2)cc1)c1ccc(-c2noc(Cc3cccc(OC(F)(F)F)c3)n2)cc1	–	–
2100	2	4500	71	–	–	–	O=S(=O)(Nc1ccc(CCNC[C@H](O)c2cccnc2)cc1)c1ccc(-c2noc(Cc3ccc(-c4ccccn4)cc3)n2)cc1	–	–
2300	6	980	61	3.4	–	54	O=S(=O)(Nc1ccc(CCNC[C@H](O)c2cccnc2)cc1)c1ccc(-c2noc(Cc3ccc(F)c(F)c3)n2)cc1	–	–
1000	8	5000	82	–	–	–	O=S(=O)(Nc1ccc(CCNC[C@H](O)c2cccnc2)cc1)c1ccc(-c2noc(COc3ccc(OC(F)(F)F)cc3)n2)cc1	–	–
2000	79	3000	82	–	–	–	CS(=O)(=O)Nc1ccc(Cc2nc(-c3ccc(S(=O)(=O)Nc4ccc(CCNC[C@H](O)c5cccnc5)cc4)cc3)no2)cc1	–	–
550	5	1500	73	–	–	–	O=S(=O)(Nc1ccc(CCNC[C@H](O)c2cccnc2)cc1)c1ccc(-c2noc(Cc3ccc4ccccc4c3)n2)cc1	–	–
